Test results reported in PMC11496873, “Synthesis, characterization, and in vitro–in ovo toxicological screening of silibinin fatty acids conjugates as prodrugs with potential biomedical applications” (Biomolecules and Biomedicine, 2024).
Where two headings read alike, the source gives them in different places.

How the values were obtained:
[1] = tested on: chorioallantoic membrane (CAM); test: In ovo irritation test (HET-CAM); type: in vivo, chicken; conditions: SIL-O and SIL-L at 100 µM
Description: The potential irritant effect of SIL-O and SIL-L (100 µM) was assessed in ovo, by applying the Hen’s Egg Test – Chorioallantoic Membrane (HET-CAM) test. The applied procedure was also described by Breban-Schwarzkopf et al.. Briefly, chicken-fertilized eggs were cleaned and disinfected with ethanol 70% and placed in an incubator at 37 ^∘C and 60% humidity. On the fourth day of incubation, a cut was performed on the eggs’ tips to allow the extraction of 6–7 mL albumen, while on the fifth day, a window was cut on the upper side of each egg and covered with adhesive tape. The experiment was performed on the tenth day of incubation, by applying the samples directly on the chorioallantoic membrane (CAM) and analyzing the occurrence of vascular impairments, such as hemorrhage, lysis, and coagulation for 5 min. Representative pictures were taken before the start of the experiment (T0) and at its end (T5) using the Discovery 8 SteREO Microscope equipped with an Axio CAM 105 color camera and processed in ZEN core version 3.8 software (Zeiss, Göttingen, Germany). The irritant potential was determined by calculating the irritation score (IS) for each sample and interpreted as presented in a previous publication.

MTT cell viability assay = type: cell-based
Description: The study was performed using three cell lines – H9c2(2-1) cardiomyoblasts (CRL-1446™), HepaRG hepatocytes (HPRGC10), and HaCaT keratinocytes (300493) – delivered as frozen vials by ATCC (Lomianki, Poland), ThermoFisher Scientific (Waltham, MA, USA), and CLS Cell Lines Service GmbH (Eppelheim, Germany), respectively. H9c2(2-1) and HaCaT cells were grown in DMEM, while HepaRG cells were cultured in William’s E Medium containing insulin from bovine pancreas (at a final concentration of 4 µg/mL) and hydrocortisone 21-hemisuccinate sodium salt (at a final concentration of 50 µM). Both media were supplemented with 10% FCS and 1% antibiotics (penicillin 100 U/mL and streptomycin 100 µg/mL). The cells were cultured at 37 ^∘C and 5% CO2, in a humidified incubator for cell culture, presenting normal proliferation during the experiments.
The impact of all tested compounds (1, 10, 25, 50, and 100 µM) on the viability of H9c2(2-1), HepaRG, and HaCaT cells was assessed using the MTT method which was performed according to a previous publication. Briefly, the cells cultured in 96-well plates were exposed to SIL, SIL-O, and SIL-L for 24 h. At the end of the treatment, the culture medium containing SIL, SIL-O, and SIL-L was removed and replaced with 100 µL/well of the specific culture media for the used cell lines (DMEM for H9c2(2-1) cells and HaCaT; William’s E Medium for HepaRG). Then, 10 µL of MTT reagent was added in every well, followed by 3 h of incubation of the plates at 37 ^∘C. The absorbance measurements were performed at 570 and 630 nm on Cytation 5 Microplate Reader (BioTek Instruments Inc., Winooski, VT, USA) following the addition of the MTT solubilization solution (a volume of 100 µL/well), and the plates’ incubation at room temperature for 30 min, protected from light.

HaCaT keratinocytes = test: Hoechst 33342 nuclear staining, apoptotic index; type: cell-based, human; conditions: 100 µM, 24 h
Description: The influence of SIL, SIL-O, and SIL-L (100 µM) on nuclear morphology was evaluated by imaging the cells’ nuclei stained with Hoechst 33342. Shortly, at the end of the treatment, the H9c2(2-1), HepaRG, and HaCaT cells cultured in 12-well plates were treated with staining solution (500 µL/well, dilution of 1:2000 in PBS) for 10 min at room temperature, protected from light and washed with PBS before imaging which was performed on Cytation 1 Imaging Reader (BioTek Instruments Inc., Winooski, VT, USA). Image processing was conducted using the Gen5™ Microplate Data Collection and Analysis Software (BioTek Instruments Inc., Winooski, VT, USA). Apoptotic index (AI) was calculated by applying the formula previously reported: […]

H9c2(2-1) cells = test: Cell migration (scratch) assay; type: cell-based; conditions: 24 h, normalized to control
Description: (§1) To investigate the effect of SIL, SIL-O, and SIL-L treatments on the migration of H9c2(2-1), HepaRG, and HaCaT cells, the scratch assay was performed as follows: (A) the cells (10^5 cells/mL/well) were seeded in Corning Costar 24-well plates and left to attach and reach a proper confluence, (B) a scratch was automatically made in every well using the AutoScratch™ Wound Making Tool (BioTek Instruments Inc., Winooski, VT, USA), (C) the cells were exposed to SIL and its FAs derivatives 1, 10, and 25 µM for 24 h, and (D) the wound area was imaged at two time points (0 and 24 h) using Cytation 1 Imaging Reader (BioTek® Instruments Inc., Winooski, VT, USA). The Gen5 ™ Microplate Data Collection and Analysis Software (BioTek® Instruments Inc., Winooski, VT, USA) was used to measure the wound widths in each image. The migration rates (%) for the applied treatments were determined using the formula presented below and normalized to control.
(§2) Migration rate (%) ═ [drawing 2] ×100, where:
(§3) At0 ═ wound width at 0 h,
(§4) At24 ═ wound width at 24 h.

HepaRG cells = test: Cell migration (scratch) assay; type: cell-based; conditions: 24 h, normalized to control
Description: as §1, §2, §3, §4

HaCaT cells [2] = test: Cell migration (scratch) assay; type: cell-based, human; conditions: 24 h
Description: as §1, §2, §3, §4

[3] = set-up: method as in PMID 19601873; conditions: buffers with pH 1.0–7.8 and physiological media (plasma, intestinal and liver fluids); cited from earlier work
H9c2 cells = tested on: H9c2 cells; set-up: method as in PMID 22818713; conditions: concentrations up to 200 µM, 48 h; cited from earlier work
[4] = tested on: HK-2 human renal tubular endothelial cells; set-up: method as in PMID 32103902; conditions: HK-2 cells, 60 and 90 µM, 48 h; cited from earlier work
[5] = tested on: Madin–Darby Canine Kidney (MDCK) cells; set-up: method as in PMID 20036447; conditions: 800 µM, 2 h; cited from earlier work
[6] = tested on: LX-2 human hepatic stellate cells; set-up: method as in PMID 27746612; conditions: LX-2 cells, 10, 50 and 100 µM; cited from earlier work
HaCaT cells [7] = tested on: HaCaT cells; set-up: method as in earlier work; conditions: 24 h, cited from earlier work

## CCCCCCCCCCCCOS(=O)(=O)[O-].[Na+] [SDS 1%, sodium dodecyl sulfate]
[1]; 5 min
  IS value (irritation score): 19.74
[1]; based on IS value
  Observation (irritant classification): Strong irritant

## COc1cc(C2Oc3cc([C@H]4Oc5cc(O)cc(O)c5C(=O)[C@@H]4O)ccc3OC2CO)ccc1O (some centres unmarked) [SIL, Silibinin]
MTT cell viability assay; human, HepaRG hepatocytes, higher concentrations (reduction up to), normalized to control
  viability at 24 h: ~80%
MTT cell viability assay; rat, H9c2(2-1) cardiomyoblasts, 1 µM, normalized to control
  viability at 24 h, 1 µM: 128%
MTT cell viability assay; rat, H9c2(2-1) cardiomyoblasts, all tested concentrations (1, 10, 25, 50, 100 µM), compared to control
  viability at 24 h, 100 µM: > 100%
HaCaT keratinocytes
  apoptotic index (AI): no significant changes
H9c2(2-1) cells; 1 µM
  migration rate: 105.34%
H9c2(2-1) cells; 25 µM
  migration rate: 119.8%
HepaRG cells; 10 µM
  migration rate: around 50%
HepaRG cells; 25 µM
  migration rate: around 50%
HaCaT cells [2]; 25 µM, compared to control
  effect on migration: significant inhibition
HaCaT cells [2]; 1 and 10 µM
  effect on migration: neither SIL, nor SIL-O or SIL-L affected
[3]
  stability: unstable
H9c2 cells
  cytotoxicity: not cytotoxic
[4]
  effect on viability: significantly decreased the viability
[5]
  cytotoxicity: no cytotoxic effect
[6]
  effect on migratory properties: inhibitory effect

## CCCCCCCC/C=C\CCCCCCCC(=O)Oc1c(-c2ccc(O)c(O)c2)oc2cc(O)cc(O)c2c1=O [quercetin-3-oleate]
HaCaT cells [7]; 0.1 µM (first concentration listed)
  enhancement in wound healing compared to control: 47%
HaCaT cells [7]; 0.1 µM (second concentration listed)
  enhancement in wound healing compared to control: 35%
HaCaT cells [7]; 1 µM
  enhancement in wound healing compared to control: 51%
